Results on one molecule are retold here after patent publication US12036212B2, “Enhancement of tumor response to chemotherapy by activation of the asmase/ceramide pathway through timed administration of a short-acting anti-angiogenic agent” (Memorial Sloan-Kettering Cancer Center, priority 2014, dated 2024).

For test [1], the system named is human cells. The settings on record: cited from earlier work.
Test [2] has as its system BAEC. Put plainly: Apoptosis in vitro (Hoechst nuclear staining) in BAEC. The format is cell-based, bovine. As to conditions: bovine endothelial cells; cisplatin up to 50 μM; etoposide 50 μM alone, 8 hours. As to the method:
Apoptosis was assessed in vitro by examining morphologic changes in nuclear chromatin using bis-benzimide trihydrochloride (Hoechst #33258; Sigma-Aldrich, Milwaukee WI). BAEC and HCAEC monolayer cultures were first detached using 0.25% trypsin and 0.02% EDTA in HBSS and then combined with the floating population of cells. The cell pellet was washed in PBS, resuspended in 3% paraformaldehyde, and incubated for 10 min at 22° C. Following the removal of fixative, cells were resuspended in PBS containing 8 μg/ml of Hoechst-33258. Following a 15-min incubation at 22° C., cells were placed on a glass slide, and scored for the incidence of apoptotic chromatin changes using fluorescence microscope.
Since the ASMase/ceramide pathway is known to play a critical role in endothelial injury and dysfunction, BAEC and HCAEC were treated with paclitaxel (100 nM), etoposide (50 μM), and cisplatin (0.1-50 μM), and endothelial apoptosis was assessed.
To set the basis for experiments involving evaluation of anti-angiogenic therapy in combination with chemotherapy, and the role of ASMase/ceramide pathway in this process, the effects of various factors on the chemotherapy induced cell death were assessed. BAEC were pre-incubated for 30 min with bFGF (2 ng/mL), VEGF (2 ng/mL) or nystatin (30 μg/mL) prior to treatment with etoposide (50 μM), and apoptosis was evaluated after 8 hours using bis-benzamide trihydrochloride staining (FIG. 3).

Test [3] deals with ASMase. The test can be described thus: ASMase activation in HCAEC. The format is cell-based, human. The settings on record: cisplatin 0.1-50 μM. The procedure: HCAEC were obtained from Clonetics™ Coronary Artery Endothelial Cell Systems (Cambrex Bio Science Inc.). For HCAEC culturing and sub-culturing Clonetics cell system components were used: EBM®-2, Endothelial Cell Basal Medium-2 with addition of Clonetics EGM-2-MV SingleQuots containing growth supplements (Cambrex) (Biomedical Technologies, Inc.). For sub-culturing, monolayers were dissociated with Clonetics® Trypsin/EDTA solution for 2-3 min at 22° C. at a split ratio of 1:4 to expand the cell population for experiments. HCAEC cultures were maintained at 37° C. in 5% CO2 humidified incubators.
ASMase activity was quantified by radioenzymatic assay using [^14C-methylcholine]sphingomyelin (Amersham) as substrate as described (Schissel et al. J Biol Chem, 271, 18431-18436, 1996). Cell lysates were incubated with [^14C-methylcholine]-sphingomyelin substrate (0.026 mCi/9.5 nmol) in 250 mM sodium acetate, pH 5.0 supplemented with 0.1% Triton X-100 and 1 mM EDTA or 0.1 mM ZnCl. Reactions were terminated after 1 h with CHCl3:MeOH:1N HCl (100:100:1, v/v/v), and [^14C-methylcholine]phosphocholine product in the aqueous layer of the Folch extract was quantified using a Beckman Packard 2200 CA Tricarb scintillation counter. For detection of ASMase activity in patients, 10 μl of serum was used. […]

For `N.N.[Cl][Pt][Cl]` [cisplatin], in test [1], the ASMase result is on record as “increase ASMase” and the Apoptosis result is listed as “induce apoptosis”. Further, the Apoptotic response entry in test [2] is on record as “failed to trigger an appropriate apoptotic response”. In test [3], the ASMase activation entry is on record as “failed to activate ASMase”.
